# Source: patent US8513462B2, “Pesticides and uses thereof” (Dow AgroSciences LLC, priority 2007, dated 2013)
# Columns and labels:
# [1] = system: cotton aphid (Aphis gossypii); experiment: Insecticidal test for cotton aphid in foliar spray assay; format: in vivo; conditions: 72 h, foliar spray on squash, Corrected % Control (Abbott) after 3 days, read-out: Rating against cotton aphid on squash (foliar spray)
# Description: (§1) The compounds identified in the foregoing examples were tested against cotton aphid using procedures described hereinafter. Insecticidal Test for Cotton Aphid (Aphis gossypii) in Foliar Spray Assay Squash seedlings with fully expanded cotyledon leaves were trimmed to one cotyledon per plant and infested with cotton aphid (wingless adults and nymphs) 1 day prior to chemical application. Each plant was examined before chemical application to ensure uniform infestation (ca. 30-70 aphids per plant). Compounds (2 mg) were dissolved in 2 ml of acetone:methanol (1:1) solvent, forming stock solutions of 1000 ppm. The stock solutions were diluted 5× with 0.025% Tween 20 in H2O to obtain a solution at 200 ppm. A hand-held Devilbiss aspirator type sprayer was used to apply the spray solutions until runoff to both sides of the squash cotyledon leaves. Four plants (4 replications) were used for each compound. Reference plants (solvent check) were sprayed with the diluent only. Treated plants were held in a holding room for 3 days at approximately 23° C. and 40% RH before the number of live aphids on each plant was recorded. Insecticidal activity was measured by Corrected % Control using Abbott's correction formula and presented in Table 1-Activity: Corrected % Control=100*(X−Y)/X • where X=No. of live aphids on solvent check plants • Y=No. of live aphids on treated plants Results are shown in Table 7. Insecticidal Test for Green Peach Aphid (Myzus persicae) in Foliar Spray Assay
# [2] = system: green peach aphid (Myzus persicae); experiment: Insecticidal test for green peach aphid in foliar spray assay; format: in vivo; conditions: 72 h, foliar spray on cabbage, Corrected % Control (Abbott) after three days, read-out: Rating against green peach aphid on cabbage (foliar spray)
# Description: as §1, with “Squash” for “The compounds identified in the foregoing examples were tested against cotton aphid using procedures described hereinafter. Insecticidal Test for Cotton Aphid (Aphis gossypii) in Foliar Spray Assay Squash”, “Assay Cabbage seedlings grown in 3-inch pots, with 2-3 small (3-5 cm) true leaves, were used as test substrate. The seedlings were infested with 20-50 green peach aphids (wingless adult and nymph) 1-2 days prior to chemical application. Four seedlings were used for each treatment. Compounds (2 mg) were dissolved in 2 ml of acetone:methanol (1:1) solvent, forming stock solutions of 1000 ppm. The stock solutions were diluted 5× with 0.025% Tween 20 in H2O to obtain a solution at 200 ppm. A hand-held Devilbiss aspirator sprayer was used for spraying a solution to both sides of cabbage leaves until runoff. Reference plants (solvent check) were sprayed with the diluent only. Treated plants were held in a holding room for three days at approximately 23° C. and 40% RH prior to grading. Evaluation was conducted by counting the number of live aphids per plant under a microscope. Insecticidal activity was measured by using Abbott's correction formula: Corrected % Control=100*(X−Y)/X • where X=No. of live aphids on solvent check plants • Y=No. of live aphids on treated plants” for “Assay”
melting point [°C],Structure (SMILES),pest or weed control at 200 ppm [1] [%],pest or weed control at 200 ppm [2] [%]
–,"CC(c1ccc(C(F)(F)F)nc1)S(C)(=O)=Nc1ccc(F)cn1 (stereo not shown) [Compound 1, 3-[1-ethyl(N-(2-(5-fluoro)pyridine)-sulfoximinyl)(methyl)]-6-trifluoromethylpyridine]",80 to 100,80 to 100
–,"CC(c1ccc(C(F)(F)F)nc1)S(C)(=O)=Nc1ccc(Cl)cn1 (stereo not shown) [Compound 2, 3-[1-ethyl(N-(2-(5-chloro)pyridine)-sulfoximinyl)(methyl)]-6-trifluoromethylpyridine]",80 to 100,80 to 100
–,"CC(c1ccc(C(F)(F)F)nc1)S(C)(=O)=Nc1ccccn1 (stereo not shown) [Compound 4, 3-[1-ethyl(N-(2-pyridine)-sulfoximinyl)(methyl)]-6-trifluoromethylpyridine]",80 to 100,< 80
–,CC(c1ccc(C(F)(F)F)nc1)S(C)(=O)=Nc1ncccn1 (stereo not shown) [Compound 5],< 80,–
–,CC(c1ccc(C(F)(F)F)nc1)S(C)(=O)=Nc1nccs1 (stereo not shown) [Compound 6],80 to 100,80 to 100
–,CC(c1ccc(C(F)(F)F)nc1)S(C)(=O)=Nc1ccc([N+](=O)[O-])cn1 (stereo not shown) [Compound 7],80 to 100,80 to 100
–,CC(c1ccc(C(F)(F)F)nc1)S(C)(=O)=Nc1ccncc1 (stereo not shown) [Compound 8],< 80,< 80
–,CC(c1ccc(C(F)(F)F)nc1)S(C)(=O)=Nc1ccc(C(F)(F)F)cn1 (stereo not shown) [Compound 12],< 80,–
–,"CC(c1ccc(C(F)(F)F)nc1)S(C)(=O)=Nc1nc(Br)cs1 (stereo not shown) [Compound 13, 5-{1-[methyl(4-bromo-1,3-thiazol-2-yl)sulfonimidoyl]ethyl}-2-(trifluoromethyl)pyridine]",80 to 100,< 80
88 to 93,CC(c1ccc(C(F)(F)F)nc1)S(C)(=O)=Nc1nc(-c2ccccc2)cs1 (stereo not shown) [Compound 15],–,80 to 100
–,"CC(c1ccc(C(F)(F)F)nc1)S(C)(=O)=Nc1cccc[n+]1[O-] (stereo not shown) [Compound 24, 3-[1-ethyl(N-(1-oxy-pyridin-2-e)-sulfoximinyl)(methyl)]-6-trifluoromethylpyridine]",80 to 100,< 80
89 to 94,"CC(c1ccc(C(F)(F)F)nc1)S(C)(=O)=Nc1nc(-c2ccc(F)cc2)cs1 (stereo not shown) [Compound 27, 5-{1-[methyl(4-(4-fluorophenyl)-1,3-thiazol-2-yl)sulfonimidoyl]ethyl}-2-(trifluoromethyl)pyridine]",–,80 to 100
144 to 148,CC(c1ccc(C(F)(F)F)nc1)S(C)(=O)=Nc1nc(C(C)(C)C)cs1 (stereo not shown) [Compound 29],–,80 to 100
95 to 100,CC(c1ccc(C(F)(F)F)nc1)S(C)(=O)=Nc1nc(C(F)(F)C(F)(F)F)cs1 (stereo not shown) [Compound 30],–,80 to 100
102 to 106,CC(c1ccc(C(F)(F)F)nc1)S(C)(=O)=Nc1nc(C2CC2)cs1 (stereo not shown) [Compound 32],–,< 80
178 to 182,CC(c1ccc(C(F)(F)F)nc1)S(C)(=O)=Nc1nc(-c2cccnc2)cs1 (stereo not shown) [Compound 33],–,80 to 100
134 to 141,CC(c1ccc(C(F)(F)F)nc1)S(C)(=O)=Nc1nc(-c2ccccn2)cs1 (stereo not shown) [Compound 35],–,80 to 100
160 to 165,CC(c1ccc(C(F)(F)F)nc1)S(C)(=O)=Nc1nc(-c2ccc(Br)s2)cs1 (stereo not shown) [Compound 37],–,80 to 100
168 to 173,CC(c1ccc(C(F)(F)F)nc1)S(C)(=O)=Nc1nc(-c2ccsc2)cs1 (stereo not shown) [Compound 38],–,80 to 100
163 to 167,CC(c1ccc(C(F)(F)F)nc1)S(C)(=O)=Nc1nc(-c2nccs2)cs1 (stereo not shown) [Compound 39],–,80 to 100

melting point [°C],Structure (SMILES),pest or weed control at 200 ppm [1] [%],pest or weed control at 200 ppm [2] [%]
124 to 128,CC(c1ccc(C(F)(F)F)nc1)S(C)(=O)=Nc1nc(-c2ccc(Cl)s2)cs1 (stereo not shown) [Compound 41],–,80 to 100
78 to 80,CC(c1ccc(C(F)(F)F)nc1)S(C)(=O)=Nc1nc(-c2ccc(C#N)cc2)cs1 (stereo not shown) [Compound 43],–,80 to 100
107 to 110,COc1cccc(-c2csc(N=S(C)(=O)C(C)c3ccc(C(F)(F)F)nc3)n2)c1 (stereo not shown) [Compound 44],–,80 to 100
124 to 127,CC(c1ccc(C(F)(F)F)nc1)S(C)(=O)=Nc1nc(-c2ccc(C(F)(F)F)cc2)cs1 (stereo not shown) [Compound 45],–,80 to 100
105 to 110,CCOc1ccc(-c2csc(N=S(C)(=O)C(C)c3ccc(C(F)(F)F)nc3)n2)cc1 (stereo not shown) [Compound 46],–,80 to 100
153 to 160,COc1ccc(-c2csc(N=S(C)(=O)C(C)c3ccc(C(F)(F)F)nc3)n2)cc1OC (stereo not shown) [Compound 48],–,80 to 100
72 to 77,COc1ccccc1-c1csc(N=S(C)(=O)C(C)c2ccc(C(F)(F)F)nc2)n1 (stereo not shown) [Compound 51],–,80 to 100
90 to 95,CC(c1ccc(C(F)(F)F)nc1)S(C)(=O)=Nc1nc(-c2ccc(OC(F)(F)F)cc2)cs1 (stereo not shown) [Compound 52],–,80 to 100
126 to 128,CS(=O)(Cc1ccc(C(F)(F)F)nc1)=Nc1nc(C(F)(F)F)cs1 (stereo not shown) [Compound 55],–,80 to 100
114 to 116,CCc1csc(N=S(C)(=O)Cc2ccc(C(F)(F)F)nc2)n1 (stereo not shown) [Compound 56],–,80 to 100
122 to 125,CS(=O)(Cc1ccc(Cl)nc1)=Nc1nc(C(F)(F)F)cs1 (stereo not shown) [Compound 58],–,80 to 100
114 to 116,CCc1csc(N=S(C)(=O)Cc2ccc(Cl)nc2)n1 (stereo not shown) [Compound 59],–,80 to 100
–,Cc1nc(N=S(C)(=O)C(C)c2ccc(C(F)(F)F)nc2)oc1C (stereo not shown) [Compound 72],–,< 80
–,Cc1oc(N=S(C)(=O)C(C)c2ccc(C(F)(F)F)nc2)nc1-c1ccc(Br)cc1 (stereo not shown) [Compound 73],–,80 to 100
–,CC(c1ccc(C(F)(F)F)nc1)S(C)(=O)=Nc1nc(-c2ccccc2)co1 (stereo not shown) [Compound 74],–,< 80
134 to 137,CC(c1ccc(C(F)(F)F)nc1)S(C)(=O)=Nc1nc(-c2ccc(Br)cc2)co1 (stereo not shown) [Compound 75],–,< 80
67 to 71,CCc1csc(N=S2(=O)CCCC2c2ccc(Cl)nc2)n1 (stereo not shown) [Compound 77],–,80 to 100
88 to 94,COc1ccc(-c2csc(N=S3(=O)CCCC3c3ccc(Cl)nc3)n2)cc1 (stereo not shown) [Compound 78],–,< 80
–,O=S1(=Nc2nc(C(F)(F)F)cs2)CCCC1c1ccc(Cl)nc1 (stereo not shown) [Compound 79],–,80 to 100

Structure (SMILES),melting point [°C],pest or weed control at 200 ppm [1] [%],pest or weed control at 200 ppm [2] [%]
COc1ccc(-c2csc(N=S(C)(=O)Cc3ccc(C(F)(F)F)nc3)n2)cc1 (stereo not shown) [Compound 54],158 to 161,–,< 80
CC(C)(C)c1csc(N=S2(=O)CCCC2c2ccc(Cl)nc2)n1 (stereo not shown) [Compound 76],77 to 81,–,80 to 100
